# From article PMC6981941 (International Journal of Molecular Sciences, 2019)
# Legend:
# YpHddC [1] = molecular target: T1, YpHddC (Yersinia pseudotuberculosis, UniProt Q8GJ90)
# T1 construct: gene hddC
# YpHddC [2] = molecular target: T1, YpHddC; remark: listed apart in the source
# T1 sequence (Q8GJ90 1-225 limits assumed): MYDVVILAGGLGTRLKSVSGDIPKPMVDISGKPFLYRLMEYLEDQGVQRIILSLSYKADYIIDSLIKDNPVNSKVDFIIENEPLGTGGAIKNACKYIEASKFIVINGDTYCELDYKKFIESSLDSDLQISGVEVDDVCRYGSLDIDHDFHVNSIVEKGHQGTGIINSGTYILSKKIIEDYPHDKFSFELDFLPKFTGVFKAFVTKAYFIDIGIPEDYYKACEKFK
compound,measurement,setting,value
Nc1nc2c(ncn2[C@@H]2O[C@H](COP(=O)(O)OP(N)(=O)O)[C@@H](O)[C@H]2O)c(=O)[nH]1 [GMPPN],"X-ray crystal structure, 1.55 Å",YpHddC [1],"The extra densities were well matched with one magnesium, one GMPPN (Figure A1)"
Nc1nc2c(ncn2[C@@H]2O[C@H](COP(=O)(O)OP(=O)(O)OP(=O)(O)O)[C@@H](O)[C@H]2O)c(=O)[nH]1 [GTP],malachite green assay with pyrophosphatase,YpHddC [2],The main molecular property of YpHddC is its GTP preference
O=P(O)(O)O[C@H]1O[C@H](CO)[C@@H](O)[C@H](O)[C@@H]1O [αM1P],malachite green assay with pyrophosphatase,YpHddC [2],we used α-D-Mannose-1-phosphate (αM1P) purchased from Sigma for a substrate
